Several values for one entry are separate records, joined by “and”; a condition that tells them apart may be missing. Equal values may be shown once. Read-outs that look alike come from different tables or passages of the source.
Key:
[1] = tested on: ampicillin-resistant Escherichia coli biofilm; test: Biofilm on PE-50 catheters in vitro, survival rate; type: cell-based; settings: 6 hours
Method: (§1) Single clone of ampicillin-resistant Escherichia coli was selected and incubated in LB medium overnight, then transferred into 2 mL fresh LB medium according to the proportion of 1:200 dilutions and transferred to 6 mm ultraviolet sterilized PE-50 catheters. The catheters were inoculated in 1 mL LB at 37 for 24 h. The culture medium was changed every 24 hours for 3 days. The biofilm of ampicillin-resistant bacteria in PE50 catheters were washed with 1 mL sterile phosphate-buffered saline five times to remove loosely adherent cells, and then transferred to 1.5 mL EP tubes.
The test was divided into six groups: saline solution control, 20 mM glutamine, 160 μg/mL ampicillin, 160 μg/mL ampicillin plus 20 mM glutamine, 160 μg/mL ampicillin plus 20 mM glucose, 160 μg/mL ampicillin plus 20 mM glutamine and 20 mM glucose. The catheters were cultured in a shaker at 200 rpm at 37 for 6 hours. The bacterial biofilm was removed from catheters with sonication for 10 minutes. Serial dilutions and spot-plating were performed to determine the cell number. The bacterial survival rate was calculated as: viable counts in treatment group/viable counts in control group×100%.

[2] = tested on: antibiotic-resistant bacteria in kidneys; test: Mouse urinary tract infection model, bacterial content in kidneys; type: in vivo; settings: mice, tail i.v. twice-daily for 3 days; glutamine 100 mg kg−1, glucose 100 mg kg−1, ampicillin 320 mg kg−1 as present; saline group 16750
Method: (§2) In vivo experiments in mice, female mice (5 weeks, weighing 18-20 g) received surgical implantation in the urinary tract of PESO catheter tubes. The mice were randomly divided into six groups in 48 h after the surgery, five each group. The six groups included treatment with saline (group 1), 100 mg kg^−1 glutamine (group 2), 320 mg kg^−1 ampicillin (group 3), 100 mg kg^−1 glutamine plus 320 mg kg^−1 ampicillin (group 4), 100 mg kg^−1 glucose plus 320 mg kg^−1 ampicillin (group 5), and 100 mg kg^−1 glutamine and 100 mg kg^−1 glucose plus 320 mg kg^−1 ampicillin (group 6) by tail intravenous injection for 3 days, twice-daily. Catheter tubes were extracted in 24 hours after the last treatment. To dislodge biofilm cells, catheters were suspended in saline solution with ultrasonic. Serial dilutions and spot-plating were performed to determine the bacterial survival rate in biofilm. The survival rate was calculated as: viable counts in treatment group/viable counts in control group×100%.
Meanwhile, kidneys of mice were homogeneous with appropriate amount of saline. Bacterial content in kidneys was determined by plate counting method.

[3] = tested on: Staphylococcus aureus, Edwardsiella tarda, Beta streptococcus, Pseudomonas aeruginosa, Escherichia coli, Vibrio alginolyticus and Vibrio parahaemolyticus; test: Plate counting of several species of bacteria with ampicillin and glutamine; type: cell-based; settings: 20 mM glutamine and ampicillin at double MIC for each strain, 4 hours
Method: (Staphylococcus aureus, B. streptococcus, Pseudomonas aeruginosa, Escherichia coli) or 30° C. (the others) for 16 hours.

[4] = tested on: 6 species of antibiotic resistant Escherichia coli (GEN-R, AMP-R, BLFX-R, KAN-R, NA-R and CAZ-R); settings: 20 mM glutamine plus 8 μg/mL balofloxacin, 50 μg/mL gentamicin, 160 μg/mL nalidixic acid, ceftazidime, kanamycin or ampicillin; 4 h
Method: (§3) Bacterium cultures of 20 mL were collected and centrifuged at 8,000 rpm for 5 minutes. The bacterial pellets were washed with equal volume of 0.85% saline solution, suspended in M9 medium containing 10 mM sodium acetate and then adjusted to OD600 of 0.5. […] These mixtures were cultured in a shaker at 200 rpm at 37° C. for 4 h. Then 100 μL of bacterial suspension was used for bacterial plate counting.

[5] = tested on: eight species of antibiotic resistant Escherichia coli; test: Viable counts and survival rate of several antibiotic resistant bacteria with ampicillin; type: cell-based; settings: 20 mM glutamine, 160 μg/mL ampicillin, 4 hours
Method: (§4) The viable counts and survival rate of bacteria were calculated after added with 20 mM glutamine and 160 μg/mL ampicillin for 4 hours.

[6] = tested on: ampicillin-resistant Escherichia coli (AMP-R); type: cell-based; settings: 20 mM glutamine; for killing efficiency increase compared with the treatment without glutamine: 4 hours
Method: as §3
To investigate the effect of antibiotic dose on the sensitivity of bacteria to antibiotics by glutamine, 20 mM glutamine and 20, 40, 80, 160, 240, 320 and 400 μg/mL ampicillin were used to treat ampicillin-resistant Escherichia coli for 4 hours, and then bacterial plate counting was conducted. The survival rates of bacteria with and without glutamine were compared at the same antibiotic concentration.
To investigate the effect of exposure time on the killing efficiency, the viable counts of bacteria were counted during 1-8 hours after spiked with 20 mM glutamine and 160 μg/mL ampicillin.
To investigate the effect of glutamine concentration on killing efficiency and the optimum bactericidal concentrations, different concentrations of glutamine were added to 160 μg/mL ampicillin. The number of live bacteria was counted after 4 hours. The survival rate was calculated according to the formula below: viable counts at different concentration of glutamine/viable counts without glutamine×100%.
Single clone of ampicillin-resistant Escherichia coli was selected and inoculated in 100 mL LB medium and cultured at 200 rpm at 37° C. for 16 hours. Bacterial suspension of 20 mL was collected and centrifuged at 8,000 rpm for 5 min. The resulting bacterial pellets were washed with equal volume of 0.85% saline solution, suspended in M9 medium containing 10 mM sodium acetate and then adjusted to […] of 0.5. Aliquots of 5 mL bacterial cells were transferred to test tubes for further application.
The sample was added with 160 μg/mL ampicillin and 0-20 Mm glucose, then cultured in a shaker at 200 rpm at 37° C. for 4 hours. The cell number was counted and survival rate was calculated. […]

[7] = tested on: penicillin-resistant Escherichia coli (4 antibiotic resistant bacteria); test: Viable counts and survival rate of penicillin-resistant bacteria with 4 penicillins; type: cell-based; settings: 20 mM glutamine with ampicillin 320 μg/mL, penicillin G 2560 μg/mL, amoxicillin 512 μg/mL or carbenicillin 320 μg/mL, 4 hours
Method: To investigate whether the sensitivity of Escherichia coli and antibiotic resistant Escherichia coli to penicillin antibiotics was improved with glutamine, the samples of control bacteria and penicillin-resistant bacteria were prepared according to Embodiment 2.1. The viable counts and survival rate of bacteria were calculated after added with 20 mM glutamine and 4 kinds of penicillins (does for control bacteria were: ampicillin 25 μg/mL, penicillin G 200 μg/mL, amoxicillin 20 μg/mL, carbenicillin 100 μg/mL; does for antibiotic resistant bacteria were: ampicillin 320 μg/mL, penicillin G 2560 μg/mL, amoxicillin 512 μg/mL, carbenicillin 320 μg/mL) for 4 hours. […] The sensitivity of control bacteria increased 38-1000 times and 71-1900 times for 4 antibiotic resistant bacteria when added with glutamine.

[8] = tested on: Escherichia coli K12 BW25113 (control bacteria); test: Viable counts and survival rate of control bacteria; type: cell-based; settings: 4 hours
Method: as §4
The viable counts and survival rate of bacteria were calculated after added with 20 mM glutamine and 4 kinds of penicillins (does for control bacteria were: ampicillin 25 μg/mL, penicillin G 200 μg/mL, amoxicillin 20 μg/mL, carbenicillin 100 μg/mL; does for antibiotic resistant bacteria were: ampicillin 320 μg/mL, penicillin G 2560 μg/mL, amoxicillin 512 μg/mL, carbenicillin 320 μg/mL) for 4 hours.
The viable counts and survival rate of bacteria were calculated after added with 20 mM glutamine and antibiotics at the concentration of 8 times of MIC for 4 hours.

[9] = tested on: ampicillin-resistant Escherichia coli biofilm; test: Mouse urinary tract catheter biofilm model, bacterial survival rate in biofilm; type: in vivo; settings: mice, tail intravenous injection twice-daily for 3 days; glutamine 100 mg kg−1, glucose 100 mg kg−1, ampicillin 320 mg kg−1 as present
Method: as §1
as §2, with “To dislodge biofilm cells, catheters were suspended in saline solution with ultrasonic. Serial dilutions and spot-plating were performed to determine the bacterial survival rate in biofilm.” left out

NC(=O)CC[C@H](N)C(=O)O [glutamine]
elimination of biofilm by single agent ([1]; 20 mM glutamine or 160 μg/mL ampicillin alone): did not eliminate the antibiotic-resistant bacterium biofilm | bacterial survival rate in biofilm (treatment group/saline control) ([1]; 20 mM glutamine, 160 μg/mL ampicillin, 20 mM glucose as present): 96.03% | bacterial content in kidneys [2]: 9113 cell/g | sensitivity of several species of bacteria to ampicillin [3]: improved generally | sensitivity of antibiotic resistant bacteria to respective antibiotic [4]: improved the sensitivity of 6 species of antibiotic resistant bacteria to respective antibiotic | sensitivity to ampicillin increased [5]: 4-36 times | killing efficiency increase compared with the treatment without glutamine ([6]; 20 μg/mL ampicillin): 1.12 folds | killing efficiency increase compared with the treatment without glutamine ([6]; 40 μg/mL ampicillin): 1.57 folds | killing efficiency increase compared with the treatment without glutamine ([6]; 80 μg/mL ampicillin): 1.95 folds | elevated sensitivity of ampicillin-resistant bacteria to ampicillin ([6]; 160 μg/mL ampicillin, 4 h): about 200 folds | killing efficiency increase compared with the treatment without glutamine ([6]; 160 μg/mL ampicillin): 7.66 folds | killing efficiency increase ([6]; 160 μg/mL ampicillin, after 4 hours or more): 8-22 times | killing efficiency increase compared with the treatment without glutamine ([6]; 240 μg/mL ampicillin): 24.29 folds | killing efficiency increase compared with the treatment without glutamine ([6]; 320 μg/mL ampicillin): 137.78 folds | killing efficiency increase compared with the treatment without glutamine ([6]; 400 μg/mL ampicillin): 171.34 folds and 200 folds | sensitivity to four types of penicillins increased [7]: 71-1900 times | sensitivity to four types of penicillins increased ([8]; 20 mM glutamine with ampicillin 25 μg/mL, penicillin G 200 μg/mL, amoxicillin 20 μg/mL or carbenicillin 100 μg/mL): 38-1000 times | sensitivity to 4 kinds of antibiotics improved ([8]; 20 mM glutamine with tetracycline, erythromycin, clindamycin or rifampicin at 8 times of MIC): approximately 1.5 times | sensitivity to ampicillin increased ([8]; 20 mM glutamine, 160 μg/mL ampicillin): 1.75 times | bacterial survival rate in catheter biofilm in comparison with saline control [9]: 88.24%
